From patent US20040146474A1, “Method for softening lines and relaxing the skin with adenosine and adenosine analogues” (L'OREAL, priority 2002, published 2004) come the findings set out here.

Molecules are shown by their SMILES.

The assay deals with equivalent dermis model constituted by a matrix of collagen seeded with normal human fibroblasts. The assay can be described thus: Dermo-relaxant effect: spontaneous contraction of equivalent dermis (collagen matrix seeded with fibroblasts). The note with it: adenosine 0.01%. It counts as cell-based. The text has this:
The principle of this test is to study the relaxing effect of adenosine on an equivalent dermis model constituted by a matrix of collagen seeded with normal human fibroblasts.
These conditions were intended to imitate in vitro the dermal contractile phenomena which occur during facial expressions. Under these conditions, cells spontaneously express tensile forces which induce retraction of the collagen gel. […] Measuring that surface area allows the relaxation effects of substances that have been brought into contact with the equivalent dermis to be determined.
Two series of 3 attached equivalent dermises containing normal human fibroblasts were prepared: a control series with no treatment, and a series treated with adenosine (0.01%). The experiment was carried out three times.
The skin equivalents were prepared as described by Asselineau et al, Exp. Cell. Res., 1985, 159, 536-539; Models in Dermatology, 1987, vol 3, pp 1-7, in the following proportions:
The treated equivalent dermis differed from the control equivalent dermis in that 0.01% of adenosine had been added.
The collagen used was type I collagen (commercial solution), but it was also possible to use type III or IV collagen. It was extracted from rat tails or calf skin by acid hydrolysis and stored in an acidic medium at +4° C.; it polymerizes naturally by heating to 37° C. and by reducing the acidity. The collagen had been dialyzed against successive baths of water+acetic acid.
The following protocol was employed: the following were introduced into a sterile tube: 1.76×MEM medium in the presence of additives (glutamine 1%, non essential amino acids 1%, sodium pyruvate 1%, fungizone 1% and penicillin/streptomycin 1%), foetal calf serum, 0.1 N sodium hydroxide NaOH. Fibroblasts isolated from human skin explants were then added in a concentration of 1.4×10^5 cells per ml of culture medium.
A 1/1000 vol/vol mixture of collagen in acetic acid was then slowly added by pouring it down the tube wall so that the appearance of a whitish cloud was observed.
The ensemble was then carefully mixed and distributed into the wells of a 12-well culture plate (Costar, reference 3512) in an amount of 0.5 ml of mixture per cm^2. The culture plate was placed in an incubator at 37° C. with 5% CO2.
Once formed after polymerizing the collagen, the equivalent dermises were left adhering to the culture support for 3 days then detached from the support so that contraction could commence. […]
To this end, a digital image was acquired for each treated or untreated equivalent dermis using a camera (CCD Camera—Iris Sony DXC—107P) and the surface area was then calculated for each image using an image analysis system (Zeiss Axiovision 3.0). […]

Take `Nc1ncnc2c1ncn2[C@@H]1O[C@H](CO)[C@@H](O)[C@H]1O` [Adenosine]: the “relaxing effect on equivalent dermis” value (conclusion in words) was “causes less contraction in an equivalent dermis”. For the same compound, the “reduction of contraction percentage compared with the control” value is, setting by setting: (eight hours after detachment from support) 10.5%; (four hours after detachment from support) 6.4%; (twenty-four hours after detachment from support) 12.7%.
